For 18 molecules, IC50 and EC50 results are on record in US20250011318A1 (ARCUS BIOSCIENCES, INC., priority 2023, published 2025).

One assay addresses T1, Cbl-b (Homo sapiens, UniProt Q13191).
T1 construct: biotin (biotinylated)
The experiment in a line: Cbl-b probe displacement HTRF binding assay. The settings on record: 0.4 nM biotinylated Cbl-b, 150 nM BODIPY probe. As for the experimental part:
The affinity with which compounds of the present disclosure bind to Cbl-b was assessed using probe displacement homologous time resolved fluorescence (HTRF) assays. The assays used a BODIPY™ conjugated probe (Example 54 from WO 2020264398) and biotinylated Cbl-b. The assays were performed in assay buffer consisting of 20 mM Hepes, 150 mM NaCl, 0.01% Triton X-100, 0.5 mM TCEP, 0.01% BSA. On the day of the assay, a 20 point, 1:2 master serial dilution of each compound was prepared in DMSO to span a final concentration range of 10 μM to 0 nM. Two hundred nanoliters of diluted compound was added to each well of a 384-well plate. Fifteen microliters of biotinylated—Cbl-b resuspended in assay buffer were added to each well and the plate incubated for 60 minutes at room temperature prior to addition of 5 μL of BODIPY™ probe in assay buffer. Final assay conditions included 0.4 nM of Cbl-b and 150 nM of BODIPY™ probe. After a further 15 minutes of incubation at room temperature, 5 μl of Streptavidin-Terbium cryptate reagent at 5-fold final concentration was added to each well of the 384-well plate. Binding of a probe to Cbl-b results in an increase of HTRF signal. HTRF signal was measured by Envision plate reader, while competition of a compound of the present disclosure with probe results in a decrease of signal. Percentage maximum activity in each test well was calculated based on DMSO (maximum activity, 0% displacement) and no protein control wells (baseline activity, 100% displacement). Binding affinity was determined from a dose response curve fitted using a standard four parameter fit equation. See Table 3 for data for compounds (Cbl-b Binding (IC50)).
A general note: Time-resolved FRET reads energy transfer from a long-lived donor to a nearby acceptor.

In the next assay the test system is Jurkat cells. The assay is described as follows: IL-2 secretion assay in CD3/CD28-activated Jurkat cells (AlphaLISA). Format: cell-based, human. The settings on record: Homo sapiens, CD3/CD28 T Cell Activator, 24 h, IL-2 AlphaLISA. The procedure:
Certain compounds were also evaluated in an IL-2 secretion assay. On the day of the assay, a 16 point, 1:2 master serial dilution of each compound was prepared in Opti-MEM to span a final concentration range of 10 μM to 300 pM. Assays were setup in CORNING® tissue culture-treated 384-well microplates containing 60 nL of each dilution. Jurkat cells grown in RPMI-1640 supplemented with 10% FBS, 1% Glutamax, and 1% Pen/Strep were collected, resuspended in Opti-MEM. 50,000 cells/well and added to the compound plates. After a short spin (1200 rpm for 1 min), the plates were incubated at 37° C. for 1 hour. The cells were activated by adding 15 μL of IMUNOCULT™ Human CD3/CD28 T Cell Activator (STEMCELL Technologies) diluted in Opti-MEM. After 24 h of incubation at 37° C., aliquots of culture supernatants were transferred to OptiPlate-384 (PerkinElmer) microplates. The level of IL-2 secretion in the supernatants was then determined using the IL-2 (human) AlphaLISA Detection Kit (PerkinElmer) according to the manufacturer's recommendations. The AlphaLISA signal was measured using an EnVision plate reader (PerkinElmer). EC50 values were determined by fitting the data to a standard 4-parameter logistic equation. See Table 3 for data for select compounds (IL-2 Secretion (EC50)).

T1 sequence (Q13191 whole entry, species assumed): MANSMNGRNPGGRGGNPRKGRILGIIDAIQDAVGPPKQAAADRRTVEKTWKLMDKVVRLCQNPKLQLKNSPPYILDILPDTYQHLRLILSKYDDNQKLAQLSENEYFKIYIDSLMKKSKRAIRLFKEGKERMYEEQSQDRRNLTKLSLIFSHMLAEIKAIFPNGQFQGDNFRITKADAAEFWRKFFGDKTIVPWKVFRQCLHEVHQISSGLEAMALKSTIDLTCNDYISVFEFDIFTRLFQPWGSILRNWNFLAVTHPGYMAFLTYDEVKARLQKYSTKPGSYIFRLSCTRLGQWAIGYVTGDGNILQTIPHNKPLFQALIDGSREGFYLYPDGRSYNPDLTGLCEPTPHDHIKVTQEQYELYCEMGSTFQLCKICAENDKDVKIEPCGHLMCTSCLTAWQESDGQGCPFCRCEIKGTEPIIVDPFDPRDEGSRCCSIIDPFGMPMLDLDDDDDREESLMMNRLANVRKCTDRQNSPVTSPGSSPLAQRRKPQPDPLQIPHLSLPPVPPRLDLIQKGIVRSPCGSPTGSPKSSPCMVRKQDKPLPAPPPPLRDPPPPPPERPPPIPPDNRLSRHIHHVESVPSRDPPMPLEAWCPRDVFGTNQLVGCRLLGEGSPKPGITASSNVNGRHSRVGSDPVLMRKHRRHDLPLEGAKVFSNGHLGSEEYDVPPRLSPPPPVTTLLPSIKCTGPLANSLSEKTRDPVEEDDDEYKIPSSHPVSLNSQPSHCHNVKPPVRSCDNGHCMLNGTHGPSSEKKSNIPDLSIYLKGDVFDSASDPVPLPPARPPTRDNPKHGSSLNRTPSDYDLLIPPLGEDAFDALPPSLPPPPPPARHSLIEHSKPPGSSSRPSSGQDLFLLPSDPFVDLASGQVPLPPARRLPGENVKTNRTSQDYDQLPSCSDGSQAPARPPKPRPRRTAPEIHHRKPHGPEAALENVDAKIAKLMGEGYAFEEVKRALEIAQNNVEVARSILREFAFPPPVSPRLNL

Molecule `COCCNCc1cc2ncn(-c3cc(-c4ccc(F)cc4-n4nncc4CF)cc(C4CC4)n3)c(=O)c2[nH]1` [Example 138, 3-[6-cyclopropyl-4-[4-fluoro-2-[5-(fluoromethyl)triazol-1-yl]phenyl]pyridin-2-yl]-6-[(2-methoxyethylamino)methyl]-5H-pyrrolo[3,2-d]pyrimidin-4-one] yielded an IC50 on Cbl-b of less than 100 nM. The same molecule registered an EC50 with Jurkat cells of less than 100 nM.
In the case of `COCCNCc1cc2c(C3CC3)cn(-c3cc(-c4ccc(F)cc4-c4nc(C#N)cn4C)cc(C4CC4)n3)c(=O)c2[nH]1` [Example 110, 2-[2-[2-cyclopropyl-6-[4-cyclopropyl-2-[(2-methoxyethylamino)methyl]-7-oxo-1H-pyrrolo[2,3-c]pyridin-6-yl]pyridin-4-yl]-5-fluorophenyl]-1-methylimidazole-4-carbonitrile], at Cbl-b, the IC50 was less than 100 nM. In the assay on Jurkat cells, this molecule displayed a half-maximal effective concentration (EC50) of less than 100 nM.
At Cbl-b, `Cn1ccnc1-c1cc(F)ccc1-c1cc(C2CC2)nc(-n2cc(C#N)c3cc(CN4CC5(C4)CS(=O)(=O)C5)[nH]c3c2=O)c1` [Example 87, 6-{6-cyclopropyl-4-[4-fluoro-2-(1-methyl-2-imidazolyl)phenyl]-2-pyridyl}-2-{(2,2-dioxo-2λ^6-thia-6-aza-6-spiro[3.3]heptyl)methyl}-7-oxo-1,6-dihydro-1,6-diaza-4-indenecarbonitrile] showed an IC50 of less than 100 nM. In addition, the EC50 with Jurkat cells was less than 100 nM.
The molecule `C[C@H]1CCCN(Cc2cc3c(C#N)cn(-c4cc(-c5ccc(C#N)cc5-c5nccn5C)cc(C5CC5)n4)c(=O)c3[nH]2)C1` [Example 84, 2-{[(S)-3-methyl-1-piperidyl]methyl}-6-{4-[4-cyano-2-(1-methyl-2-imidazolyl)phenyl]-6-cyclopropyl-2-pyridyl}-7-oxo-1,6-dihydro-1,6-diaza-4-indenecarbonitrile] gave a concentration for half-maximal inhibition (IC50) at Cbl-b of less than 100 nM. This molecule also gave an EC50 in the assay on Jurkat cells of less than 100 nM.
With `Cn1cnnc1-c1cc(F)ccc1-c1cc(C2CC2)nc(-n2cc(C#N)c3cc(C(O)c4cccnc4)[nH]c3c2=O)c1` (stereo not shown) [Example 92, 6-{6-Cyclopropyl-4-[4-fluoro-2-(4-methyl-4H-1,2,4-triazol-3-yl)phenyl]-2-pyridyl}-2-[hydroxy(3-pyridyl)methyl]-7-oxo-1,6-dihydro-1,6-diaza-4-indenecarbonitrile], the IC50 at Cbl-b was less than 100 nM. This molecule also yielded a concentration giving a half-maximal response (EC50) in the assay on Jurkat cells of less than 100 nM.
On to `Cn1cnnc1-c1cc(F)ccc1-c1cc(C2CC2)nc(-n2cc(C(F)(F)F)c3c(C#N)c[nH]c3c2=O)c1` [Example 135, 6-[6-cyclopropyl-4-[4-fluoro-2-(4-methyl-1,2,4-triazol-3-yl)phenyl]pyridin-2-yl]-7-oxo-4-(trifluoromethyl)-1H-pyrrolo[2,3-c]pyridine-3-carbonitrile], for which the IC50 at Cbl-b was less than 100 nM. This molecule also yielded a 50% effective concentration (EC50) in the assay with Jurkat cells of less than 100 nM.
Molecule `Cn1cnnc1-c1cc(F)ccc1-c1cc(C2CC2)nc(-n2cnc3cc(CC4CCCC4)[nH]c3c2=O)c1` [Example 121, 6-(cyclopentylmethyl)-3-[6-cyclopropyl-4-[4-fluoro-2-(4-methyl-1,2,4-triazol-3-yl)phenyl]pyridin-2-yl]-5H-pyrrolo[3,2-d]pyrimidin-4-one] yielded a concentration for half-maximal inhibition (IC50) on Cbl-b of less than 100 nM. Moreover, the EC50 with Jurkat cells lay within 100 to 1000 nM.
In turn, `CC1(NCc2cc3c(C4CC4)cn(-c4cc(-c5ccc(C#N)cc5-c5nncn5C(F)F)cc(C5CC5)n4)c(=O)c3[nH]2)CCC1` [Example 68, 4-(6-cyclopropyl-2-{4-cyclopropyl-2-[(1-methylcyclobutylamino)methyl]-7-oxo-1,6-dihydro-1,6-diaza-6-indenyl}-4-pyridyl)-3-[4-(difluoromethyl)-4H-1,2,4-triazol-3-yl]benzonitrile] had a 50% inhibitory concentration (IC50) on Cbl-b of less than 100 nM. In the assay on Jurkat cells, the 50% effective concentration (EC50) is less than 100 nM.
With `COCCNCc1cc2ncn(-c3cc(-c4ccc(C#N)cc4-c4ncoc4C)cc(C4CC4)n3)c(=O)c2[nH]1` [Example 72, 4-(6-cyclopropyl-2-{2-[(2-methoxyethylamino)methyl]-7-oxo-1,6-dihydro-1,4,6-triaza-6-indenyl}-4-pyridyl)-3-(5-methyl-1,3-oxazol-4-yl)benzonitrile], the IC50 on Cbl-b is less than 100 nM.
Molecule `Cn1cnnc1-c1cc(F)ccc1-c1cc(C2CC2)nc(-n2cc(C#N)c3c(C#N)n[nH]c3c2=O)c1` [Example 27, 6-{6-cyclopropyl-4-[4-fluoro-2-(4-methyl-4H-1,2,4-triazol-3-yl)phenyl]-2-pyridyl}-7-oxo-1,6-dihydro-1,2,6-triaza-3,4-indenedicarbonitrile] registered a 50% inhibitory concentration (IC50) on Cbl-b of 100 to 1000 nM. This molecule also registered an EC50 in the assay on Jurkat cells of more than 5000 nM.
Take `C[C@H]1CCCN(Cc2cc3c(C4CC4)cn(-c4cccc(-c5ccc(F)cc5-c5nccn5C)c4)c(=O)c3[nH]2)C1` [Example 17, 4-cyclopropyl-6-[3-[4-fluoro-2-(1-methylimidazol-2-yl)phenyl]phenyl]-2-[[(3S)-3-methylpiperidin-1-yl]methyl]-1H-pyrrolo[2,3-c]pyridin-7-one]: the IC50 on Cbl-b is less than 100 nM. In addition, the EC50 in the assay on Jurkat cells fell in the range of 100 to 1000 nM.
For `COCCNCc1cc2ncn(-c3cc(-c4ccc(F)cc4-c4ncoc4C)cc(C4CC4)n3)c(=O)c2[nH]1` [Example 78, 6-{6-cyclopropyl-4-[4-fluoro-2-(5-methyl-1,3-oxazol-4-yl)phenyl]-2-pyridyl}-2-[(2-methoxyethylamino)methyl]-1,6-dihydro-1,4,6-triaza-7-indenone], on Cbl-b, the IC50 was less than 100 nM.
Consider `C[C@H]1CCCN(Cc2cc3c(C4CC4)cn(-c4cc(-c5ccc(F)cc5-c5nncn5C)cc(C5CC5)n4)c(=O)c3[nH]2)C1` [Example 10, 2-{[(S)-3-Methyl-1-piperidyl]methyl}-4-cyclopropyl-6-{6-cyclopropyl-4-[4-fluoro-2-(4-methyl-4H-1,2,4-triazol-3-yl)phenyl]-2-pyridyl}-1,6-dihydro-1,6-diaza-7-indenone], for which, at Cbl-b, the concentration for half-maximal inhibition (IC50) is less than 100 nM.
As to `C[C@H]1CCCN(Cc2cc3c(C4CC4)cn(-c4cc(-c5ccc(C#N)cc5-c5nccn5C)cc(C5CC5)n4)c(=O)c3[nH]2)C1` [Example 13, 4-[2-(2-{[(S)-3-methyl-1-piperidyl]methyl}-4-cyclopropyl-7-oxo-1,6-dihydro-1,6-diaza-6-indenyl)-6-cyclopropyl-4-pyridyl]-3-(1-methyl-2-imidazolyl)benzonitrile], the 50% inhibitory concentration (IC50) on Cbl-b is less than 100 nM.
Molecule `COC[C@H](C)NCc1cc2ncn(-c3cc(-c4ccc(F)cc4-c4ncoc4C)cc(C4CC4)n3)c(=O)c2[nH]1` [Example 79, 2-{[(S)-2-methoxy-1-methylethylamino]methyl}-6-{6-cyclopropyl-4-[4-fluoro-2-(5-methyl-1,3-oxazol-4-yl)phenyl]-2-pyridyl}-1,6-dihydro-1,4,6-triaza-7-indenone] yielded an IC50 at Cbl-b of less than 100 nM.
`CO[C@@H](C)CNCc1nc2c(C(F)(F)F)cn(-c3cc(-c4ccc(F)cc4-c4ncoc4C)cc(C4CC4)n3)c(=O)c2[nH]1` [Example 49, 2-{[(S)-2-methoxypropylamino]methyl}-5-{6-cyclopropyl-4-[4-fluoro-2-(5-methyl-1,3-oxazol-4-yl)phenyl]-2-pyridyl}-7-(trifluoromethyl)-3,5-dihydro-1,3,5-triaza-4-indenone] yielded a concentration for half-maximal inhibition (IC50) on Cbl-b of less than 100 nM.
The molecule `CCOCCNCc1cc2ncn(-c3cc(-c4ccc(F)cc4-c4ncoc4C)cc(C4CC4)n3)c(=O)c2[nH]1` [Example 80, 6-{6-cyclopropyl-4-[4-fluoro-2-(5-methyl-1,3-oxazol-4-yl)phenyl]-2-pyridyl}-2-[(2-ethoxyethylamino)methyl]-1,6-dihydro-1,4,6-triaza-7-indenone] yielded a half-maximal inhibitory concentration (IC50) on Cbl-b of less than 100 nM.
The same measure, in the same setting: the result for `CO[C@@H](C)CN(C)Cc1cc2ncn(-c3cc(-c4ccc(F)cc4-c4nc(C#N)cn4C)cc(C4CC4)n3)c(=O)c2[nH]1` [Example 113, 2-[2-[2-cyclopropyl-6-[6-[[[(2S)-2-methoxypropyl]-methylamino]methyl]-4-oxo-5H-pyrrolo[3,2-d]pyrimidin-3-yl]pyridin-4-yl]-5-fluorophenyl]-1-methyl-imidazole-4-carbonitrile] reads less than 100 nM.

What is called IC50 is the midpoint of a concentration-inhibition curve. Higher therefore signals weaker potency in that assay. Usually EC50 stands for the concentration at which the effect is half-maximal. Read a high EC50 as a need for much substance.
